Data published in patent US20090054403A1, “Treatment of Post-Traumatic Stress Disorder” (priority 2007, published 2009).

Columns and labels:
[1] = test system: spontaneous motor activity; experiment: Spontaneous motor activity on day ten of chronic dosing
Experimental: The effects of chronic dosing of nepicastat were examined. Between three and thirteen days prior to the first dosing day the rats were placed inside the startle apparatus and after a five minute acclimation period they were presented with a 118 dB noise burst on average once a minute (a variable inter-trial interval ranging between 30 and 90 seconds will be used) for 20 minutes. The startle responses were measured and a mean for the last twenty startle response was calculated for each rat.
The animals were tested in an enclosed room with a white noise generator running. Motor activity tests were conducted immediately after the body core temperature reading taken on dosing day ten (about 3 hours and 35 minutes after the morning daily dose of nepicastat, and SKF-102698, and 20 minutes prior to the daily administration of clonidine and d-amphetamine on dosing day ten). Motor activity tests were run for one hour. A diagnostic program was run on each of the motor activity chambers prior to each test session to assure that the photo beams and light sensors were operating properly. […] D-amphetamine was used as the positive control for this assay.
Each rats spontaneous locomotion was obtained by calculating the total number of photobeams that the subject broke during the testing session.
Spontaneous motor activity was measured for each animal every 15 min for 1 hour. Each time block (every 15 min) was analyzed separately. Kruskal-Wallis test (nonparametric technique) was performed to test for the difference between treatment groups. If the overall significant difference […], Bonferroni's adjustment for multiple comparisons is then made.

[2] = test system: sympathetically mediated pressor response; experiment: Pressor response to pre-ganglionic nerve stimulation in pithed SHR; type: in vivo, spontaneously hypertensive rats (SHR)
Experimental: Hemodynamic study in SHR. Male SHR (15-16 week old) were used in the study. The animals were lightly anesthetized with ether and the left femoral artery and vein were catheterized for measurement of blood pressure and drug administration, respectively. The animals were placed in restrainers and allowed to recover for 30-40 min. […] The animals were then anesthetized with pentobarbital, placed on a heating pad (37° C.) and ventilated with a Harvard rodent ventilator. After administration of atropine (1 mg/kg, iv) and tubocurarine (1 mg/kg, iv), the animals were pithed through the orbit of the eye with a stainless steel rod. The […] rod was stimulated electrically with 1 ms pulses of 80V at different frequencies (0.15, 0.45, 1.5, 5, 15 Hz) to obtain frequency-pressor response curves.

[3] = test system: tissue norepinephrine and dopamine levels; experiment: Tissue catecholamines in iodine-deficient rats after 10 days b.i.d. dosing; type: in vivo, Sprague-Dawley rats; details: day 10; for dopamine/norepinephrine ratio vs vehicle, mesenteric artery: hydrochloride
Experimental: Male Sprague-Dawley rats, weighing 180-200 grams, were fed an iodine deficient diet (Purina, 5891C, Lot 1478, 0.066±0.042 mg iodine/kg sample) ad libitum 14 days prior to treatment. Animals were weighed and randomly assigned to one of the following treatment groups (n=12 per group): Nepicastat at 2.0 mg/kg, Nepicastat at 6.2 mg/kg, R, Methimazole at 1 mg/kg, or vehicle at 1 ml/kg. Each group of rats was dosed orally in the evening and the following morning, approximately 12 hours apart, for 10 consecutive days.
At four hours after the second dose, on day 10, rats were anesthetized with halothane, decapitated, and the cortex, striatum, and mesenteric artery were harvested and weighed. Tissue samples were not harvested from the methimazole groups as they only served as positive controls for determination of thyroid function. The mesenteric artery, cortex, and striatum were immediately placed in 0.4M iced perchloric acid and analyzed for norepinephrine and dopamine levels the same day using HPLC.
To statistically evaluate changes in T3 and T4 levels, a change from baseline was calculated from the day-3 time point. A non-parametric two-way within subject analysis of variance (ANOVA) was conducted. Also a one-way ANOVA was performed to detect if a significant difference from control occurred. Pairwise analyses between controls and each treatment group were carried out using Fisher's LSD strategy to control the experiment-wise error rate. For statistical analysis of catecholamine levels, a one-way ANOVA with factor DOSE was performed. Pairwise analyses between treated and controls at each dose were carried out using Fisher's LSD strategy to control the experiment-wise error rate.

[4] = test system: blood pressure; experiment: Blood pressure in conscious, restrained normotensive rats; type: in vivo, Wistar-Kyoto rats; details: 10 mg/kg, 4 hours after dosing
[5] = test system: dopamine and norepinephrine in the left ventricle; experiment: Left ventricle catecholamines after two iv doses; type: in vivo, Sprague-Dawley rats; details: 15 mg/kg iv x2, 12 h apart, 6 h after last
[6] = test system: mice; experiment: Acute toxicity study, single oral doses; type: in vivo; details: single oral doses of 250, 1000, or 2500 mg/kg
Experimental: Dose selection was based on an acute toxicity study in which mice were administered single oral doses of 250, 1000, or 2500 mg/kg of Nepicastat.

[7] = test system: locomotor activity; experiment: Infrared activity monitoring (IRAM) in MPTP-lesioned monkeys; type: in vivo, squirrel monkeys (Saimiri sciureus)
Experimental: Drug nepicastat or water (as placebo) was administered for 12 days following a minimum 2 day washout after L-Dopa dosing. Drug was administered twice daily at 10 am and 2 pm by oral gavage. Behavior was rated by IRAM and CRS. The CRS was conducted in the morning, 60 to 90 minutes after the 10 am dose of nepicastat on the last 5 days of drug treatment. Raters (one to three individuals) were blinded to the different treatment groups. IRAM assessments were preformed for 90 minutes immediately following drug administration at 2 pm on the last 5 days of drug treatment.
IRAM Locomotor activity was monitored every 10 minutes for a minimum of 90 minutes following each drug level. A higher rating is considered a faster (less parkinsonian) animal.
Statistical analysis consisted of descriptive statistics and graphing the mean of each 10 minutes data blocks of placebo and experimental drug at 1, 4, and 10 mg/kg. The graph was then examined to detect any trends. Further statistical analysis was not performed since no difference was determined from graphical analysis.

[8] = test system: mean arterial pressure, renal blood flow; experiment: Arterial pressure and renal function in anesthetized SHR after iv dosing; type: in vivo; details: 3.0 mg/kg i.v.

## Fc1cc(F)cc(Cn2cc[nH]c2=S)c1 [SKF 102698, reference compound]
[1]; day ten of b.i.d. oral dosing, 1 hour
  spontaneous motor (locomotor) activity vs vehicle: significantly lower locomotor activity than its vehicle control at the first 45 minutes
[1]; day ten of b.i.d. oral dosing, 1 hour, listed as SKF102698
  spontaneous motor (locomotor) activity vs vehicle: significantly reduced

## Cl.NCc1c[nH]c(=S)n1[C@H]1CCc2c(F)cc(F)cc2C1 [nepicastat, (S)-5-Aminomethyl-1-(5,7-difluoro-1,2,3,4-tetrahydronaphth-2-yl)-2,3-dihydro-2-thioxo-1H-imidazole hydrochloride]
[2]; 3 mg/kg p.o., 5 hours after dosing
  responses to preganglionic nerve stimulation: significantly attenuated the hypertensive and tachycardic responses
[2]; 5 h after oral dosing
  maximum shift of the frequency-pressor response curve: 5 fold
[3]; 2.0 and 6.2 mg/kg b.i.d.
  norepinephrine levels vs vehicle, cortex: not significantly (p>0.05) different
  norepinephrine levels vs vehicle, mesenteric artery: significantly (p<0.05) lower
  norepinephrine levels vs vehicle, striatum: marginally (p<0.10) lower
  dopamine/norepinephrine ratio vs vehicle, mesenteric artery: significantly (p<0.05) higher
[3]; 2.0 and 6.2 mg/kg b.i.d., listed as 2a
  dopamine/norepinephrine ratio vs vehicle, mesenteric artery: significantly raised
[3]; 2.0 and 6.2 mg/kg b.i.d., listed as RS-25560-197, hydrochloride
  dopamine/norepinephrine ratio vs vehicle, cortex and striatum: not significantly (p>0.05) different
[3]; 2.0 or 6.2 mg/kg b.i.d.
  dopamine levels vs vehicle, cortex, striatum and mesenteric artery: not significantly (p>0.05) different
[4]
  decrease in pressure: −13 mmHg
[5]
  decrease in norepinephrine levels, left ventricle: 51%
  increase in dopamine levels, left ventricle: 472%
  increase in dopamine/norepinephrine ratio, left ventricle: 1117%
[6]
  acute toxicity: Clinical signs of toxicity and death occurred at 1000 and 2500 mg/kg
[1]; rat, in vivo, po
  spontaneous motor (locomotor) activity vs vehicle: no overall significant treatment effect
[7]; 1 mg/kg/day
  activity monitoring compared to placebo: slower than placebo treatment
[7]; 4 and 10 mg/kg/day, 10 to 90 minutes post-dosing
  activity monitoring compared to placebo: no difference
[8]
  renal blood flow, urine production, urinary sodium and potassium excretion: did not lower renal blood flow or alter urine production or urinary excretion of sodium or potassium
[8]; 3 hour period
  mean arterial pressure: decreased mean arterial pressure
